What was measured:
male Sprague-Dawley rats [1] = test system: male Sprague-Dawley rats
Experimental: All surgical and experimental procedures were reviewed and approved by the Animal Care and Handling Committee of Laval University, in accordance with the Canadian Council on Animal Care (file no. 2012-223). Experiments were performed on male Sprague-Dawley rats (300–375 g) purchased from Charles River Laboratories (St-Constant, Qc, Canada). Only animals of the male gender have been studied to be consistent with related and recently published data ([Jean et al., 2016a]). The rats were housed in a temperature-controlled room (22 ± 1 °C) on a 12 h/12 h light-dark cycle (lights on at 0600) and had free access to normal chow diet and tap water. They were allowed to acclimate to their environmental conditions for one week prior to being studied. At the end of the acclimation period, the rats were anesthetised with sodium pentobarbital (50 mg kg^−1, i.p., supplemented as required) and had one catheter implanted into the right jugular vein (for intravenous ( i.v.) injection) and one into the left femoral artery (for direct and continuous measurement of blood pressure and heart rate as previously described, [Jean et al., 2016a]). In some experiments, a miniaturized pulsed Doppler flow probe ([Haywood et al., 1981]) was implanted around the distal abdominal aorta (below the level of the ileocaecal artery) through a midline abdominal incision to monitor changes in hindquarter hemodynamic, according to the method previously developed by [Gardiner & Bennett (1988)] and as previously described ([Bachelard et al., 1992]; [Jean et al., 2016a]). Experiments started at least 30 min following the end of surgery in anesthetised rats.
Baseline heart rate and phasic and mean arterial blood pressure were recorded over a period of 15 min in anesthetized rats. […] Peptides were dissolved in isotonic saline (0.9% NaCl) containing 0.1% BSA to prevent the adsorption of peptide to the glassware and plastic surfaces. All i.v. injections were given as 100 µl boluses which were washed in with a further 100 µl of saline (the dead space of the catheter). Only one peptide was tested per group of rats and each injection started with saline-BSA 0.1% followed by the lowest dose of peptide. The next dose was administered once all recorded cardiovascular parameters had returned to baseline after the previous injection (usually 2–10 min). At the end of the experiments each animal was euthanized with an overdose of sodium pentobarbital (240 mg/kg, i.v.).
In these experiments, enalaprilat was intravenously administered as bolus (0.1 mg/kg, 0.1 ml) following a 10 min period of baseline measurements of heart rate and blood pressure. Fifteen minutes later, a dose–response curve to MK was obtained, as described above. […] In these experiments, icatibant was intravenously administered as bolus (25 µg/kg, 0.1 ml) 15 min before the i.v. injection of increasing doses of MK, as above. […] In these experiments, pyrilamine was intravenously administered as bolus (5 mg/kg, 0.1 ml) 15 min before the i.v. injection of increasing doses of MK, as above.
(§1) Results are presented as means ± s.e.m. Radioligand binding data were fitted by nonlinear regression to a one-site competition equation using a least-square method (Prism 5.0; GraphPad Software Inc., San Diego, CA, USA) and IC50 values calculated from this procedure. The same computer program was used to draw concentration-effect curves (least square fitting of sigmoidal dose–response equation with variable slope) and to derive contractile EC50 values. Data describing baseline values of heart rate and mean arterial blood pressure and hypotensive responses to peptides in anesthetized rats were assessed by using one-way analysis of variance (ANOVA) followed by the Dunnett’s test (repeated comparison with a common control).

MRGPRX2 (human sequence) = conditions: ref McNeil et al., 2015; cited from earlier work
From the text: MRGPRX2 has been recently described as a promiscuous receptor for cationic polymers and drugs that produce direct mast cell degranulation ([McNeil et al., 2015]). […] The contractile effect of MK on the human umbilical vein and ...

male Sprague-Dawley rats [2] = experiment: Acute hindquarter hemodynamic effects in anesthetized rats; format: in vivo, rat; conditions: icatibant 25 µg/kg i.v., 15 min before
Experimental: Before each experiment, a 30-min stabilization period was allowed, during which continuous recording of heart rate, phasic and mean blood pressure and phasic and mean Doppler shift signals from the hindquarter probe were made in anesthetized rats, using the Biopac data acquisition and analysis system previously described ([Jean et al., 2016a]). Then, a first group of rats (n = 8) received successive i.v. injections of peptide vehicle (saline-BSA 0.1%), BK (6.4 µg/kg), and MK (1.6 µg/kg). […] Further experiments were made in a second group of rats (n = 6) pretreated with the B2R antagonist, icatibant. […] At the end of the experiments the rats were euthanized with an overdose of anesthetic (pentobarbital 240 mg/kg, i.v.).
Results are presented as means ± s.e.m.

[3] = molecular target: T1, human isolated umbilical vein (BK B2R; histamine H1R) (Homo sapiens, UniProt P30411); conditions: antagonist 1 µM, 30 min before MK
T1 sequence (P30411 1-391): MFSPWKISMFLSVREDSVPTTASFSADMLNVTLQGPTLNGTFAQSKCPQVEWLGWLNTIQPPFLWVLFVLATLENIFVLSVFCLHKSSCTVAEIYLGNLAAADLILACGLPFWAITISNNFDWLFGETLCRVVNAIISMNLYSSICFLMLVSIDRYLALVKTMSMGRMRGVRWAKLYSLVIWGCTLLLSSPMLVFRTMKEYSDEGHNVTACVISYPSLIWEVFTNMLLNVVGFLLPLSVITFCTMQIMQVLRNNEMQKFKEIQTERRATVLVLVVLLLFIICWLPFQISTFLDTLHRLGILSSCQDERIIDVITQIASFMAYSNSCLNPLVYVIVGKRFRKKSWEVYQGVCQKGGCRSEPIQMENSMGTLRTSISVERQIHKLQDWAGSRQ
From the text: The institutional research ethics board (CHU de Québec) approved the anonymous use of human umbilical cord segments obtained after elective cesarean section deliveries (file number: 2012-323). Informed written consent was obtained from mothers.
as §1, with “control). The effects of drugs on the hypotensive responses to each dose of MK were assessed by using ANOVA followed by the Dunnett’s test.” for “control).”

## D-Arg-[Hyp^3, Thi^5, D-Tic^7, Oic^8] bradykinin [icatibant]
Male Sprague-Dawley rats [1]; 15 min after i.v., enalaprilat 0.1 mg/kg n=6, icatibant 25 µg/kg n=6, pyrilamine 5 mg/kg n=16, means ± s.e.m., control 96.5 ± 2.5
  Basal mean arterial blood pressure after pre-treatment: 90.3 ± 4.6
Male Sprague-Dawley rats [1]; 15 min after i.v., enalaprilat 0.1 mg/kg n=6, icatibant 25 µg/kg n=6, pyrilamine 5 mg/kg n=16, means ± s.e.m., control 351 ± 10, * P < 0.01 vs control
  Basal heart rate after pre-treatment: 362 ± 28
Male Sprague-Dawley rats [1]; enalaprilat 0.1 mg/kg, icatibant 25 µg/kg, pyrilamine 5 mg/kg i.v., 15 min before MK
  effect of pretreatment on hypotensive effect of MK: abated
MRGPRX2 (human sequence)
  MRGPRX2-activating concentration over B2R-antagonizing concentration: 5 to 6 orders of magnitude
Male Sprague-Dawley rats [2]
  effect of icatibant on cardiovascular responses to BK and MK: all significantly abated
Male Sprague-Dawley rats [2]; listed as Icatibant
  effect of icatibant on cardiovascular responses to BK and MK: significantly abated all types of responses to the 2 kinins
[3]
  effect of receptor antagonist on MK-induced contraction: profound inhibitory effect
